Test results: ChEMBL document CHEMBL1201862, “PubChem BioAssay data set” (2004)
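48-hour exposure; five concentrations; linearly interpolated endpoints. The concentration for 50% growth inhibition is given as GI50.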 The source made the active and inactive calls. Cut-off read from the data, not from the text of the source: active = GI50 up to about 1.1 µM and inactive = higher.

What was measured:
Assay in all cases: NCI tumour cell line growth inhibition, 48 h
[1] = system: SW-620
[2] = system: CCRF-CEM
[3] = system: SR
[4] = system: RPMI-8226
[5] = system: SNB-75
[6] = system: LOX IMVI
[7] = system: OVCAR-3
[8] = system: SK-MEL-28
[9] = system: DMS-273
[10] = system: U-251
[11] = system: SK-OV-3
[12] = system: RXF 393
[13] = system: SK-MEL-5
[14] = system: XF498
[15] = system: SNB-78
[16] = system: RXF 631
[17] = system: DMS-114
[18] = system: A549
[19] = system: NCI/ADR-RES
[20] = system: MCF7

SMILES	GI50 [1]	GI50 [2]	GI50 [3]	GI50 [4]	GI50 [5]	GI50 [6]	GI50 [7]	GI50 [8]	GI50 [9]	GI50 [10]	GI50 [11]	GI50 [12]	GI50 [13]	GI50 [14]	GI50 [15]	GI50 [16]	GI50 [17]	GI50 [18]	GI50 [19]	GI50 [20]
CN(C)C(=O)OC1C(=O)N(C)c2ccc(Cl)cc2C2(c3ccccc3)N1C2(Cl)Cl (stereo not drawn)	> 100 µM (inactive)	75.2 µM (inactive)	49.7 µM (inactive)	46.5 µM (inactive)	69.3 µM (inactive)	> 100 µM (inactive)	53.8 µM (inactive)	> 100 µM (inactive)	72.4 µM (inactive)	45.3 µM (inactive)	82.8 µM (inactive)	69.2 µM (inactive)	40.3 µM (inactive)							
COc1ccc(/C(Cl)=C(\C=O)c2ccc(Cl)c(Cl)c2)cc1OC	4.12 µM (inactive)	2.73 µM (inactive)		2.08 µM (inactive)	0.294 µM (active)	3.37 µM (inactive)	13.1 µM (inactive)	13.4 µM (inactive)	6.73 µM (inactive)	4.34 µM (inactive)	38.5 µM (inactive)		12.8 µM (inactive)	3.05 µM (inactive)	4.28 µM (inactive)	4.57 µM (inactive)	12.4 µM (inactive)			
CCOC(=O)C(C)N1C(=O)c2ccccc2S1(=O)=O (stereo not drawn)	> 100 µM (inactive)	> 100 µM (inactive)		> 100 µM (inactive)	> 100 µM (inactive)	> 100 µM (inactive)	> 100 µM (inactive)	> 100 µM (inactive)	> 100 µM (inactive)	> 100 µM (inactive)	> 100 µM (inactive)		> 100 µM (inactive)	> 100 µM (inactive)			> 100 µM (inactive)	> 100 µM (inactive)	> 100 µM (inactive)	> 100 µM (inactive)
CCNc1nnc(-c2nsc3ccccc23)s1	> 100 µM (inactive)	> 100 µM (inactive)	> 100 µM (inactive)	65.3 µM (inactive)	8.83 µM (inactive)	> 100 µM (inactive)	17.8 µM (inactive)	88.3 µM (inactive)	27.7 µM (inactive)	31.3 µM (inactive)		32.8 µM (inactive)	> 100 µM (inactive)		62.1 µM (inactive)			> 100 µM (inactive)		
CN(C)c1ccc(/C=C2\C[C@H]3[C@@H]4CCc5cc(O)ccc5[C@H]4CC[C@]3(C)C2=O)cc1	> 100 µM (inactive)	> 100 µM (inactive)	> 100 µM (inactive)	> 100 µM (inactive)	28.9 µM (inactive)	> 100 µM (inactive)	> 100 µM (inactive)	> 100 µM (inactive)		36 µM (inactive)	> 100 µM (inactive)	48.5 µM (inactive)	> 100 µM (inactive)					> 100 µM (inactive)	> 100 µM (inactive)	> 100 µM (inactive)
